From US7070965B1, “Small molecule anticancer compounds and related production process” (priority 1998, dated 2006)

Tests used:
K562 leukemia cells = assay: Apoptosis morphology, transmission electron microscope; type: cell-based, human; conditions: 60 μg/ml, 4 hours
Protocol: Human cancer cell lines DU-145 (prostate cancer), K562 (leukemia), HCT116 (colon cancer), H1688 (lung cancer), SUN423 (hepatocarcinoma), MCF7 (breast cancer), CRL-1687 (pancreatic cancer), and SUN-1 (gastric cancer) were obtained from American Type Culture Collection (ATCC). 30 ml blood was collected from a health person and normal peripheral mononuclear cells were separated by Ficoll separation solution (Sigma). All cells were maintained in RPMI 1640, DMEM, or McCoy medium supplemented with 10% FCS, […] streptomycin and 100 u/ml penicillin. Normal human peripheral mononuclear cells, K562 and SUN-1 were suspended cells. After spinning at 1,500 RPM for 5 min, supernatants were discharged and cells were resuspended and expended in fresh medium. The other tumor cell lines were adherent cells and were dispersed with 0.05% trypsin/0.01% EDTA (Irvine Scientific, CA) for expansion. Cells were seeded in T75 flasks at 2×10^6 cells/flask in culture medium supplemented with 10% fetal bovine serum and incubated overnight at 37° C. with 5% CO2. The adherent cells attached to the plate were striped with disposable cell scrapers (Fisher Scientific) after treated either with 1% iso-C15, anteiso-C15 or control solution for 1, 2, 4, 8 and 24 hours and then combined with respective float cells. […]

[1] = tested on: human prostate carcinoma DU145; assay: Orthotopic nude mice model of human prostate carcinoma DU145; type: in vivo; conditions: for Mean tumor weight / TIR (tumor inhibition rate): oral once a day
Protocol: 13-methyltetradecanoic acid (iso-C15) was chemically synthesized in the inventor's laboratory, as described in Example 5, infra, (purity of 99.8%) was prepared by dissolving in NaOH solution and then in 0.35% Tween 80 with pH7.5.
Total of 24 male athymic BALB/c nude mice between 4 and 5 weeks of age were bred and maintained in specific pathogen free condition.
Human prostate carcinoma DU145 tumor was implanted and maintained subcutaneously in the flank of athymic nude mice. Prior to orthotopic implantation, the tumor was harvested in log phase. The peripheral tumor tissue was collected and minced to small pieces of one cubic millimeter each.
The mice were anesthetized for surgical orthotopic implantation. A small incision was made along the midline of the lower abdomen. After proper exposure of the bladder and prostate, the capsule of the prostate was opened and three pieces of DU145 tumor fragments were inserted into the capsule. The capsule was then closed using 8-0 suture, and the abdomen was closed using a 6-0 surgical suture.
The mice bearing orthotopic DU145 were randomly divided into control and test groups of eight mice each at the second day after tumor implantation. The iso-C15 prepared above at doses 35 and 70 mg/kg and PBS were administered by gavage once a day in low dose and high dose test groups and control group, respectively, for […].
All the mice were sacrificed by CO2 inhalation at day-40 after the start of treatment. The weights of primary tumors and bodies were measured. Tissue samples of the primary tumors were processed through standard procedures of hematoxylin and eosin staining for microscopic examination.
The tumor inhibition rates (TIR) were determined by comparing the mean tumor weight of the test groups (T) with that of the control group (C) and expressed as a (C)−T)/C percentage, and were analyzed by Student's test for statistical significance.

normal human PBLs = assay: In situ cell death detection, POD; type: cell-based; conditions: 60 μg/ml, 8 hours
From the text: (§1) In Situ Cell Death Detection Kit, POD (Mannheim Boehringer GmbH) was used to detect the individual apoptotic cells. Cleavage of genomic DNA during apoptosis may yield double-stranded, low molecular weight DNA fragments as well as single strand breaks in high molecular weight DNA. Those DNA strand breaks can be identified by labeling free 3′-OH termini with modified nucleotides in an enzymatic reaction. In this kit terminal deoxynucleotidyl transferase (TdT) is used to label free 3′-OH ends in genomic DNA with fluorescein-dUTP. The incorporated fluorescein is visualized under fluorescence microscope directly. The incorporated fluorescein can also bind to anti-fluorescein antibody POD and be detected by substrate reaction. Stained cells can be analyzed under light microscope.
(§2) Four human tumor cell lines, K-562 human leukemia, SNU-1 human gastric carcinoma cell lines, MCF-7 human breast adenocarcinoma and H1688 human small cell lung carcinoma cell lines, as well as Human PBLs were treated with iso-C15 (60 μg/ml).
H1688, K-562 and DU145 human cancer cells and normal human PBLs were added with POD and incubated 30 min at 37° C., washed three times with PBS, then reacted with substrate AEC and incubated for 10 min at room temperature. The cells were analyzed under light microscope. […] It is evidenced that iso-C15 induces apoptosis of cancer cells but not normal human cells.

[2] = tested on: UVB radiation-induced skin tumor; assay: Chemoprevention of UVB-induced skin cancer; type: in vivo, SKH-1 hairless mice; conditions: topical 200 μl of 10% iso-C15, 30 weeks, vs vehicle-treated group
Protocol: 13-methyltetradecanoic acid (iso-C15) was prepared by dissolving in NaOH solution and then in 0.8% Tween 80 with pH 7.5, with resulting concentration 10%.
Forty female SKH-1 hairless mice were divided into control and test groups, with 20 in each. The mice in both groups were treated topically once with 5.12 μg of DMBA dissolved in 200 μl acetone per mouse to achieve tumor initiation. One week later (day 8), animals in the test group were applied topically with 200 μl iso-C15 per application per mouse per day. The control group received 200 μl Tween 80 per application per mouse per day. Thirty minutes later, the animals in both groups were exposed to UVB (290–320 nm) radiation at a dose of 180 mJ/cm^2 per day to achieve UVB radiation-induced tumor promotion. The iso-C15 or vehicle treatments followed by UVB irradiation were performed twice a week up to 30 weeks from the start of UVB exposure. The animals were evaluated for tumor incidence at the end of 30 weeks.

SNU-1 cells = assay: In situ cell death detection (TUNEL, fluorescence microscopy); type: cell-based, human; conditions: 60 μg/ml, 8 hours
From the text: as §1, §2
SNU-1 cells treated with iso-C15 for 8 hours were added with TUNEL-reaction mixture and incubated 60 min at 37° C. After washing with PBS for three times, cell morphology was analyzed directly under fluorescence microscopy.

**Q.** For `CC(C)CCCCCCCCCCCC(=O)O` [iso-C15, 13-methyltetradecanoic acid], which “morphological changes indicative of apoptosis” value (K562 leukemia cells) is on record?
**A.** The value was “exhibits typical apoptotic feature”.

**Q.** And the Mean tumor weight ([1]; 35 mg/kg)?
**A.** The Mean tumor weight was 493.25 mg.

**Q.** What about the “TIR (tumor inhibition rate)” value ([1]; 35 mg/kg) of the same molecule?
**A.** The value was 54.8%.

**Q.** And the Mean tumor weight ([1]; 70 mg/kg)?
**A.** The Mean tumor weight was 168.00 mg.

**Q.** What about the “TIR (tumor inhibition rate)” value ([1]; 70 mg/kg) of the same molecule?
**A.** The value was 84.6%.

**Q.** And the “signs of toxicity (body weight curve, histology slides)” value ([1]; 35 and 70 mg/kg oral)?
**A.** Its value is “no signs of toxicity”.

**Q.** And the “mice in which the implanted tumor did not grow” value ([1]; high dose, 70 mg/kg, eight mice per group)?
**A.** The value was “four”.

**Q.** What about the “apoptotic cells stained, POD” value (normal human PBLs) of the same molecule?
**A.** The value was “few stained apoptotic cells were seen”.

**Q.** What about the “reduction in tumor incidence” value [2] of the same molecule?
**A.** The value was 40%.

**Q.** What about the “reduction of tumor volume” value [2] of the same molecule?
**A.** Its value is 90%.

**Q.** What about the “apoptotic cells, TUNEL fluorescence” value (SNU-1 cells) of the same molecule?
**A.** The value was “Several yellow fluorescent spots of apoptotic cells were noted”.
